Laboratory results: ChEMBL document CHEMBL1155906, “Structural modifications of N-arylamide oxadiazoles: Identification of N-arylpiperidine oxadiazoles as potent and selective agonists of CB2” (Bioorg Med Chem Lett, 2008)
In brackets after ≈: the same amount, converted by molar mass.

Assays:
[1] = target: T1, Somatostatin receptor type 4 (Homo sapiens, UniProt P31391); test: Agonist activity at sst4 receptor; type: functional
[2] = target: T2, Beta-1 adrenergic receptor (Homo sapiens, UniProt P08588); test: Inhibition of adrenergic beta-1 receptor
T2 sequence (P08588 whole entry): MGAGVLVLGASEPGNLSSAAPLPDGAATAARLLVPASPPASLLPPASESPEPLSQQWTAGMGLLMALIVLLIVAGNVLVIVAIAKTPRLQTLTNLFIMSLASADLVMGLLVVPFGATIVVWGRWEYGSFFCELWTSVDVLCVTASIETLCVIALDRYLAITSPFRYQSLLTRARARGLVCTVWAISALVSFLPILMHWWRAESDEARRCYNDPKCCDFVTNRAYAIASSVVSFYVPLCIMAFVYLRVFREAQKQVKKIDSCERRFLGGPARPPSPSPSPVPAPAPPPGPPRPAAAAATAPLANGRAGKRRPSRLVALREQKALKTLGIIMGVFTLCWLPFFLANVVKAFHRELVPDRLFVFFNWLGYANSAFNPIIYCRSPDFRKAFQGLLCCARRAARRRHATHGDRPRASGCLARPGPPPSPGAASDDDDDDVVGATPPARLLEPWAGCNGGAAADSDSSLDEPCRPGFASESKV

[3] = target: T3, 5-hydroxytryptamine receptor 2B (Homo sapiens, UniProt P41595); test: Inhibition of 5HT2B receptor
T3 sequence (P41595 whole entry): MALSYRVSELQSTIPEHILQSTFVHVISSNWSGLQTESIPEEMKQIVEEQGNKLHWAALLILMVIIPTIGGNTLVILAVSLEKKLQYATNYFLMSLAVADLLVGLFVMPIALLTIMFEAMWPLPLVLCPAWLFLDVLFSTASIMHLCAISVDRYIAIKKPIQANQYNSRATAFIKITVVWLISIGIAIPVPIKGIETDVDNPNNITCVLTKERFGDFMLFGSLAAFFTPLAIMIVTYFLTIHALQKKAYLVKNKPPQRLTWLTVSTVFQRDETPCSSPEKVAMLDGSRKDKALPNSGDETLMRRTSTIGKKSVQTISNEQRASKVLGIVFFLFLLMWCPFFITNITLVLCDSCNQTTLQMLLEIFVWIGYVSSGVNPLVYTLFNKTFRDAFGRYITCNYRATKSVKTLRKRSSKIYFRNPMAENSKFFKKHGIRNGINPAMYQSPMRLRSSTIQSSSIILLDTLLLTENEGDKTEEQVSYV

Cannabinoid receptor 2 [4] = target: T4, Cannabinoid receptor 2 (Homo sapiens, UniProt P34972); test: Agonist activity at human CB2 receptor assessed as inhibition of forskolin-induced increase in intracellular cAMP relative to CP-55940; type: functional, cell-based
T4 sequence (P34972 whole entry): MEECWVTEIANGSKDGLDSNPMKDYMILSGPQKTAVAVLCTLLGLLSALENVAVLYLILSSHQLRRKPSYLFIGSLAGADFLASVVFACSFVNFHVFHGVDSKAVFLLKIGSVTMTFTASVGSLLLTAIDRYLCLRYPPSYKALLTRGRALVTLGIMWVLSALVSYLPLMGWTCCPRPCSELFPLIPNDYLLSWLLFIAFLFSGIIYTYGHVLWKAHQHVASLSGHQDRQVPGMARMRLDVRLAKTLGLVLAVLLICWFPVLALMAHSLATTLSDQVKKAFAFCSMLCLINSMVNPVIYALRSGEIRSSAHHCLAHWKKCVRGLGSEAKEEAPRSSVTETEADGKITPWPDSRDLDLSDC

[5] = Solubility in phosphate buffer saline; type: physicochemical; conditions: phosphate buffered saline
[6] = AUC (0 to 24 hrs) in Sprague-Dawley rat at 10 mg/kg, po; type: ADME, organism-based; parameters: time < 24 hr, dose 10 mg/kg, route oral; conditions: plasma
[7] = Agonist activity at CCR2b receptor; type: functional
LLC-PK1 [8] = test: Ratio of permeability from basolateral to apical side to apical to basolateral side in pig LLC-PK1 cells expressing human MDR1 at 5 uM in presence of 0.1% BSA; type: ADME, cell-based, Sus scrofa; conditions: llc-pk1, 5 µM
[9] = Apparent permeability across pig wild-type LLC-PK1 cells at 5 uM in presence of 0.1% BSA; type: ADME, cell-based, Sus scrofa
[10] = Agonist activity at adrenergic alpha1 receptor; type: functional
[11] = target: T5, 5-hydroxytryptamine receptor 1A (Homo sapiens, UniProt P08908); test: Agonist activity at 5HT1A receptor; type: functional
T5 sequence (P08908 whole entry): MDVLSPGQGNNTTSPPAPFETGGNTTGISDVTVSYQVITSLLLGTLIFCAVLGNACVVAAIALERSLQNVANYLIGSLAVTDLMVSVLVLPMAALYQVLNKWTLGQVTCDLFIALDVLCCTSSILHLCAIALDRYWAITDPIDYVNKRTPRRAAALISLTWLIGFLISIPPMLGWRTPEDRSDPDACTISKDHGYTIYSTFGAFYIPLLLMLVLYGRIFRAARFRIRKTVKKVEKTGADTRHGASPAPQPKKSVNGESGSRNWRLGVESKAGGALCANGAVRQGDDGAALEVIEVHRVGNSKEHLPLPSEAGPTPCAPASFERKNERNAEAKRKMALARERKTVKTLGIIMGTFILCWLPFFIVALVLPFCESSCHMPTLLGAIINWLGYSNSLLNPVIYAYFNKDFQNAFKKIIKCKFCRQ

[12] = target: T2, Beta-1 adrenergic receptor; test: Agonist activity at adrenergic beta-1 receptor; type: functional
Histamine H1 receptor [13] = target: T6, Histamine H1 receptor (Homo sapiens, UniProt P35367); test: Agonist activity at histamine H1 receptor; type: functional
T6 sequence (P35367 whole entry): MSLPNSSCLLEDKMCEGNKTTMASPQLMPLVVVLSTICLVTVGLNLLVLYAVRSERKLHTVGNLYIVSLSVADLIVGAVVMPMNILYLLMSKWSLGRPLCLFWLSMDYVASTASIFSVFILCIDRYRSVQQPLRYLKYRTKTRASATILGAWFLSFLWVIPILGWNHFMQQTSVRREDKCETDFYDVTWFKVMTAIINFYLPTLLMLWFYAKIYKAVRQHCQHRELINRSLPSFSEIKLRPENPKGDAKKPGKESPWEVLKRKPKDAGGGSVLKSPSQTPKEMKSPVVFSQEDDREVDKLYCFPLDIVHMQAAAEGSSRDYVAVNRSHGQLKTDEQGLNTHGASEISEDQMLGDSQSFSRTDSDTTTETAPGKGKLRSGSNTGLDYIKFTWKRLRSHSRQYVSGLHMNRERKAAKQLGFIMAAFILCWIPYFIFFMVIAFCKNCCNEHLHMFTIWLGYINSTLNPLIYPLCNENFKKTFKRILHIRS

human MDR1 (P-gp) = test: Apparent permeability across pig LLC-PK1 cells transfected with human MDR1 at 5 uM in presence of 0.1% BSA; type: ADME, cell-based, Sus scrofa
Substance-P receptor [14] = target: T7, Substance-P receptor (Homo sapiens, UniProt P25103); test: Agonist activity at NK1 receptor; type: functional
T7 sequence (P25103 whole entry): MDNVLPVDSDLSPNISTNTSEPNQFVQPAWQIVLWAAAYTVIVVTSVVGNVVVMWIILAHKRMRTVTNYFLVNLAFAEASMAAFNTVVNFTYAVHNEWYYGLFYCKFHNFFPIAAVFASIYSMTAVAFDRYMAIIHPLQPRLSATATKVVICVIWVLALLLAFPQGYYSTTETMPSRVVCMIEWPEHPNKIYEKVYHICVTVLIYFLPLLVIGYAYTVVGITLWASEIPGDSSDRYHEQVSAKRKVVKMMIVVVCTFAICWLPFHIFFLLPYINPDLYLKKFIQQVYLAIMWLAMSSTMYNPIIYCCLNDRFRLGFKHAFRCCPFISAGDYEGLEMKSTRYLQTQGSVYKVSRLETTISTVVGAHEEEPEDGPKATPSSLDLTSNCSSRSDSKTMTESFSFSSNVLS

Cannabinoid receptor 2 [15] = target: T4, Cannabinoid receptor 2; test: Agonist activity at human CB2 receptor expressed in insect Sf9 cells assessed as effect on Eu-GTP binding relative to CP-55940
D(2) dopamine receptor [16] = target: T8, D(2) dopamine receptor (Homo sapiens, UniProt P14416); test: Agonist activity at dopamine D2 receptor; type: functional
T8 sequence (P14416 whole entry): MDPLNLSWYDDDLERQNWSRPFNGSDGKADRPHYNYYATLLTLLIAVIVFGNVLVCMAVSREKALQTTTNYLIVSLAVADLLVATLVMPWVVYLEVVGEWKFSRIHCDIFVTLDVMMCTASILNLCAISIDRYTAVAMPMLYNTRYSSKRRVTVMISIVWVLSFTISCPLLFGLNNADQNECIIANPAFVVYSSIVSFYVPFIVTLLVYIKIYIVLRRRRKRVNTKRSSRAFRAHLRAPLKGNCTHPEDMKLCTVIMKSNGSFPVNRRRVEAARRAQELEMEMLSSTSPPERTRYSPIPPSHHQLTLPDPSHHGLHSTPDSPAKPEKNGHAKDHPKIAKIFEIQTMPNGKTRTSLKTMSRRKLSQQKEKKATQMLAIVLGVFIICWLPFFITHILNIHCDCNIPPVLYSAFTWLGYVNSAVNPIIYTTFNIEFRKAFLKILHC

[17] = Cmax in Sprague-Dawley rat at 10 mg/kg, po; type: ADME, organism-based; parameters: dose 10 mg/kg, route oral; conditions: in vivo
[18] = Metabolic stability in human liver microsome assessed as intrinsic clearance; type: ADME; conditions: liver microsomes
LLC-PK1 [19] = test: Ratio of permeability from basolateral to apical side to apical to basolateral side in pig wild-type LLC-PK1 cells at 5 uM in presence of 0.1% BSA; type: ADME, cell-based, Sus scrofa; conditions: llc-pk1, 5 µM
[20] = target: T5, 5-hydroxytryptamine receptor 1A; test: Inhibition of 5HT1A receptor
Cannabinoid receptor 1 [21] = target: T9, Cannabinoid receptor 1 (Homo sapiens, UniProt P21554); test: Agonist activity at human CB1 receptor assessed as inhibition of forskolin-induced increase in intracellular cAMP; type: functional, cell-based
T9 sequence (P21554 whole entry): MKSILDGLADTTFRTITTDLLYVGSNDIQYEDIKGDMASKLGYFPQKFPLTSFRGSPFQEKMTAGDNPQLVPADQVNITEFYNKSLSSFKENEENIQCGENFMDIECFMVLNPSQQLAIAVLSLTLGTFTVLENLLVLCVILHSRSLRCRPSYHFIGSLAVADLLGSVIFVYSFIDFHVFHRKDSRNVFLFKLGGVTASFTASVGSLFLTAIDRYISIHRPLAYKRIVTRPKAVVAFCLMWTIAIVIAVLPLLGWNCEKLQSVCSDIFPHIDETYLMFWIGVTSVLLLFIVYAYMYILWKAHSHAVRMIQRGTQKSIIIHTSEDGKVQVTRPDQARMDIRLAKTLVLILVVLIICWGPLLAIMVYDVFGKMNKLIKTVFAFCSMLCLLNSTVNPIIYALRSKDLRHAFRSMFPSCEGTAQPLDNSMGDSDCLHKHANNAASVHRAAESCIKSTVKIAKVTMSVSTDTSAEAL

[22] = target: Voltage-gated inwardly rectifying potassium channel KCNH2 (Homo sapiens, UniProt Q12809); test: Displacement of radiolabeled dofetilide from human ERG
[23] = Half life in Sprague-Dawley rat at 0.5 mg/kg, iv; type: ADME, organism-based; parameters: dose 0.5 mg/kg, route intravenous; conditions: in vivo
[24] = Volume of distribution at steady state in Sprague-Dawley rat at 0.5 mg/kg, iv; type: ADME, organism-based; parameters: dose 0.5 mg/kg, route intravenous; conditions: in vivo, read-out: Vdss
[25] = target: T1, Somatostatin receptor type 4; test: Inhibition of sst4 receptor
Cannabinoid receptor 1 [26] = target: T9, Cannabinoid receptor 1; test: Agonist activity at human CB1 receptor expressed in insect Sf9 cells assessed as effect on Eu-GTP binding relative to CP-55940
[27] = target: T3, 5-hydroxytryptamine receptor 2B; test: Agonist activity at 5HT2B receptor; type: functional
Histamine H1 receptor [28] = target: T6, Histamine H1 receptor; test: Inhibition of histamine H1 receptor
[29] = Inhibition of CXR2 receptor
D(2) dopamine receptor [30] = target: T8, D(2) dopamine receptor; test: Inhibition of dopamine D2 receptor
[31] = Solubility in 0.01 N HCl; type: physicochemical
[32] = Bioavailability in Sprague-Dawley rat at 10 mg/kg, po; type: ADME, organism-based; conditions: in vivo
Mu-type opioid receptor [33] = target: T10, Mu-type opioid receptor (Homo sapiens, UniProt P35372); test: Agonist activity at mu opioid receptor; type: functional
T10 sequence (P35372 whole entry): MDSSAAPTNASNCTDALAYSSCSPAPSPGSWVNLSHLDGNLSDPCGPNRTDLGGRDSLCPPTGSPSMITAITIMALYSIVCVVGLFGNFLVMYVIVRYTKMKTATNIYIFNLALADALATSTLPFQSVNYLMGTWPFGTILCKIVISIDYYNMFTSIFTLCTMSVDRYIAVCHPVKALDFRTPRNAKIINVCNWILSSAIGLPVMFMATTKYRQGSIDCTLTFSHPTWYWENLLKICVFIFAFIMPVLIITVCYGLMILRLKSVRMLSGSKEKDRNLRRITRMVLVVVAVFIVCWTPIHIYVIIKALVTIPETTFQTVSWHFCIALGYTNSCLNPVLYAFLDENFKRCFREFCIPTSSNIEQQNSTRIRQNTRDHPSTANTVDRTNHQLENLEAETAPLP

[34] = Metabolic stability in rat liver microsome assessed as intrinsic clearance; type: ADME; conditions: liver microsomes
[35] = Solubility in simulated intestinal fluid; type: physicochemical
[36] = Clearance in Sprague-Dawley rat at 0.5 mg/kg, iv; type: ADME, organism-based; parameters: dose 0.5 mg/kg, route intravenous; conditions: in vivo
[37] = Inhibition of CCR2b receptor
[38] = target: T11, Muscarinic acetylcholine receptor M1 (Homo sapiens, UniProt P11229); test: Inhibition of muscarinic M1 receptor
T11 sequence (P11229 whole entry): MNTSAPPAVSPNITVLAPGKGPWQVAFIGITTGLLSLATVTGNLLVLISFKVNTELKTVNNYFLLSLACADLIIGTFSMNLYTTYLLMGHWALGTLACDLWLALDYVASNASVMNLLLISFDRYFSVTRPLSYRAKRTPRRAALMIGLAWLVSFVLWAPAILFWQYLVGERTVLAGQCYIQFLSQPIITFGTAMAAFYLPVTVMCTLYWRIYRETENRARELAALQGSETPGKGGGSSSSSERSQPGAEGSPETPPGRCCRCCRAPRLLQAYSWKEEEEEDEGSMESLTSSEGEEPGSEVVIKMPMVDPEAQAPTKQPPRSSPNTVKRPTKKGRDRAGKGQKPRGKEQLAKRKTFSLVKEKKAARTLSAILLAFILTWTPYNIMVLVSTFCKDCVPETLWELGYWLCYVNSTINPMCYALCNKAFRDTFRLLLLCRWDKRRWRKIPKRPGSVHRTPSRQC

[39] = target: T11, Muscarinic acetylcholine receptor M1; test: Agonist activity at muscarinic M1 receptor; type: functional
Mu-type opioid receptor [40] = target: T10, Mu-type opioid receptor; test: Inhibition of mu opioid receptor
Cannabinoid receptor 2 [41] = target: T4, Cannabinoid receptor 2; test: Agonist activity at human CB2 receptor expressed in insect Sf9 cells assessed as effect on Eu-GTP binding
Substance-P receptor [42] = target: T7, Substance-P receptor; test: Inhibition of NK1 receptor
Cannabinoid receptor 1 [43] = target: T9, Cannabinoid receptor 1; test: Agonist activity at human CB1 receptor assessed as inhibition of forskolin-induced increase in intracellular cAMP relative to CP-55940; type: functional, cell-based
Cannabinoid receptor 2 [44] = target: T4, Cannabinoid receptor 2; test: Agonist activity at human CB2 receptor assessed as inhibition of forskolin-induced increase in intracellular cAMP; type: functional, cell-based
Cannabinoid receptor 1 [45] = target: T9, Cannabinoid receptor 1; test: Agonist activity at human CB1 receptor expressed in insect Sf9 cells assessed as effect on Eu-GTP binding
[46] = Agonist activity at CXR2 receptor; type: functional
[47] = Inhibition of adrenergic alpha1 receptor

T1 sequence (P31391 whole entry): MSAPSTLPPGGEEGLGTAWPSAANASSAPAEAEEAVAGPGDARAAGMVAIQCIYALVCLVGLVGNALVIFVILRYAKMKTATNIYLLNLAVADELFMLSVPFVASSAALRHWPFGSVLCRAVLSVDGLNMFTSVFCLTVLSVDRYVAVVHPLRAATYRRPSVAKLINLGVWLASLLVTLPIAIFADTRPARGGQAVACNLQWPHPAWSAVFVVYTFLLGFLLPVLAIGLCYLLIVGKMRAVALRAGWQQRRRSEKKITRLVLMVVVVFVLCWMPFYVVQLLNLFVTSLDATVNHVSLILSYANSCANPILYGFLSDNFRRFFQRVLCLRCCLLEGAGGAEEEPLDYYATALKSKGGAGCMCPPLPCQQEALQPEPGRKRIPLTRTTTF

EC50 [1]: > 50 µM | IC50 [2]: > 50 µM | IC50 [3]: > 50 µM | Emax (Cannabinoid receptor 2 [4]): 102% | solubility [5]: < 1 µg/mL | AUC(0-t) at 24 h [6]: 5240 ng·h/mL | EC50 [7]: > 50 µM | Ratio (LLC-PK1 [8]): 0.9 | Papp at 5 µM [9]: 9.95 ×10⁻⁶ cm/s | EC50 [10]: > 50 µM | EC50 [11]: > 50 µM | EC50 [12]: > 50 µM | EC50 (Histamine H1 receptor [13]): > 50 µM | Papp at 5 µM (human MDR1 (P-gp)): 10.7 ×10⁻⁶ cm/s | EC50 (Substance-P receptor [14]): > 50 µM | Emax (Cannabinoid receptor 2 [15]): 120% | EC50 (D(2) dopamine receptor [16]): > 50 µM | Cmax [17]: 682 ng/mL | microsomal CLint [18]: 38 µL/min/mg | Ratio (LLC-PK1 [19]): 0.9 | IC50 [20]: > 50 µM | EC50 (Cannabinoid receptor 1 [21]): > 2 µM | half-life [23]: 8.9 h | Vd [24]: 0.365 L/kg | IC50 [25]: > 50 µM | Emax (Cannabinoid receptor 1 [26]): 55% | EC50 [27]: > 50 µM | IC50 (Histamine H1 receptor [28]): > 50 µM | IC50 [29]: > 50 µM | IC50 (D(2) dopamine receptor [30]): > 50 µM | solubility [31]: < 1 µg/mL | bioavailability [32]: 2% | EC50 (Mu-type opioid receptor [33]): > 50 µM | microsomal CLint [34]: 32 µL/min/mg | solubility [35]: 2 µg/mL (≈ 4.51 µM) | clearance [36]: 0.65 mL/min/kg | IC50 [37]: > 50 µM | IC50 [38]: > 50 µM | EC50 [39]: > 50 µM | IC50 (Mu-type opioid receptor [40]): > 50 µM | EC50 (Cannabinoid receptor 2 [41]): 0.007 µM | IC50 (Substance-P receptor [42]): > 50 µM | Emax (Cannabinoid receptor 1 [43]): 19% | EC50 (Cannabinoid receptor 2 [44]): 0.011 µM | EC50 (Cannabinoid receptor 1 [45]): 1.43 µM | EC50 [46]: > 50 µM | IC50 [47]: > 50 µM
SMILES: Fc1ccc(-c2noc(C3CCN(c4cnc5ccc(Cl)cc5c4)CC3)n2)c(Cl)c1
IC50 [22]: 0.5 µM
